pIC50: −log10 of the molar value.
Experiments:
[1] = tested on: HGC27; assay: CellTiter-Blue cell-based survival/proliferation assay, HGC27; conditions: Homo sapiens, HGC-27; HGC27 stomach tumor cell line, 48 h
Method: (§1) Cell-Based Proliferation Screening of Compounds
(§2) CellTiter-Blue cell-based survival/proliferation assay (Promega G8080) was performed on tumor cell lines. A total of 1·10^4 cells/well/50 μl were seeded in a 96-wells plate. Treatment was initiated by addition of a 2× drug solution of 1/10 serial dilutions ranging from 0 to 10 μM. Cells were grown for 48 h at 37° C. and then incubated with 10 μl/well of Promega CellTiter-Bleue reagent for 4 h at 37° C. The amount of resorufin dye formed was quantified by its fluorescence emission at 590 nm using a scanning multiwell spectrophotometer (OPTIMA, BMG labtech, France). A blank well without cells was used as a background control for the spectrophotometer.

[2] = tested on: A549; assay: CellTiter-Blue cell-based survival/proliferation assay, A549; conditions: Homo sapiens; A549 lung tumor cell line, 48 h
Method: as §1, §2

[3] = tested on: ACHN; assay: CellTiter-Blue cell-based survival/proliferation assay, ACHN; conditions: Homo sapiens; ACHN kidney tumor cell line, 48 h
Method: as §1, §2

[4] = tested on: BXPC3; assay: CellTiter-Blue cell-based survival/proliferation assay, BXPC3; conditions: Homo sapiens, BXPC-3; BXPC3 pancreas tumor cell line, 48 h
Method: as §1, §2

[5] = tested on: AGS; assay: CellTiter-Blue cell-based survival/proliferation assay, AGS; conditions: Homo sapiens; AGS stomach tumor cell line, 48 h
Method: as §1, §2

[6] = tested on: HEPG2; assay: CellTiter-Blue cell-based survival/proliferation assay, HEPG2; conditions: Homo sapiens; HEPG2 liver tumor cell line, 48 h
Method: as §1, §2

[7] = tested on: HEP2; assay: CellTiter-Blue cell-based survival/proliferation assay, HEP2; conditions: Homo sapiens, HEp-2; HEP2 head & neck tumor cell line, 48 h
Method: as §1, §2

[8] = tested on: H1299; assay: CellTiter-Blue cell-based survival/proliferation assay, H1299; conditions: Homo sapiens, NCI-H1299; H1299 lung tumor cell line, 48 h
Method: as §1, §2

[9] = tested on: CALU6; assay: CellTiter-Blue cell-based survival/proliferation assay, CALU6; conditions: Homo sapiens, Calu-6; CALU6 lung tumor cell line, 48 h
Method: as §1, §2

[10] = tested on: HCT116; assay: CellTiter-Blue cell-based survival/proliferation assay, HCT116; conditions: Homo sapiens, HCT-116; HCT116 colorectal tumor cell line, 48 h
Method: as §1, §2

[11] = tested on: panel of about 34 human tumor cell lines; assay: Cell-based proliferation screening on panel of tumor cell lines; conditions: solid tumor cell line, cell line unknown, 48 h, read-out: IC50, solid tumor cell line of column 6 (last section of Table 3)
Method: Compounds of formula (I) were tested against a panel of about 34 human tumor cell lines representing 17 cancer type, namely leukemia (represented by 1 cell line), lymphoma (4 cell lines), myeloma (1 cell line), colorectal (2 cell lines), head and neck (3 cell lines), lung (3 cell lines), melanoma (2 cell lines), pancreas (2 cell lines), prostate (2 cell lines), ovary (2 cell lines) breast (2 cell lines), kidney (2 cell lines), stomach (2 cell lines), liver (2 cell lines), glioblastoma (2 cell lines), osteosarcoma (1 cell line), Ewing Sarcoma (1 cell line).
as §1, §2

[12] = tested on: DU145; assay: CellTiter-Blue cell-based survival/proliferation assay, DU145; conditions: Homo sapiens, DU-145; DU145 prostate tumor cell line, 48 h
Method: as §1, §2

[13] = tested on: OPM2; assay: CellTiter-Blue cell-based survival/proliferation assay, OPM2; conditions: Homo sapiens, OPM-2, Myeloma cell line OPM2, 48 h, read-out: Anti-tumoral activity (measured IC50) OPM2
Method: as §1, §2

[14] = tested on: HL60; assay: CellTiter-Blue cell-based survival/proliferation assay, HL60; conditions: Homo sapiens, HL-60, Leukemia cell line HL60, 48 h, read-out: Anti-tumoral activity (measured IC50) HL60
Method: as §1, §2

[15] = tested on: DLD1; assay: CellTiter-Blue cell-based survival/proliferation assay, DLD1; conditions: Homo sapiens, DLD-1; DLD_1 colorectal tumor cell line, 48 h
Method: as §1, §2

[16] = tested on: SW579; assay: CellTiter-Blue cell-based survival/proliferation assay, SW579; conditions: Homo sapiens; SW579 head & neck tumor cell line, 48 h
Method: as §1, §2

[17] = tested on: CLS354; assay: CellTiter-Blue cell-based survival/proliferation assay, CLS354; conditions: Homo sapiens, CLS-354; CLS354_4 head & neck tumor cell line, 48 h
Method: as §1, §2

[18] = tested on: MESSA; assay: CellTiter-Blue cell-based survival/proliferation assay, MESSA; conditions: Homo sapiens, MES-SA; MESSA ovary tumor cell line, 48 h
Method: as §1, §2

[19] = tested on: BT20; assay: CellTiter-Blue cell-based survival/proliferation assay, BT20; conditions: Homo sapiens, BT-20; BT20 breast tumor cell line, 48 h
Method: as §1, §2

[20] = tested on: PLCPRF5; assay: CellTiter-Blue cell-based survival/proliferation assay, PLCPRF5; conditions: Homo sapiens, PLC-PRF-5; PLC_PRF5 liver tumor cell line, 48 h
Method: as §1, §2

[21] = tested on: REC1; assay: CellTiter-Blue cell-based survival/proliferation assay, REC1; conditions: Homo sapiens, Lymphoma cell line REC1, 48 h, read-out: Anti-tumoral activity (measured IC50) REC1
Method: as §1, §2

[22] = tested on: TOV112D; assay: CellTiter-Blue cell-based survival/proliferation assay, TOV112D; conditions: Homo sapiens; TOV112D ovary tumor cell line, 48 h
Method: as §1, §2

[23] = tested on: PANC1; assay: CellTiter-Blue cell-based survival/proliferation assay, PANC1; conditions: Homo sapiens, PANC-1; PANC_1 pancreas tumor cell line, 48 h
Method: as §1, §2

[24] = tested on: A498; assay: CellTiter-Blue cell-based survival/proliferation assay, A498; conditions: Homo sapiens; A498 kidney tumor cell line, 48 h
Method: as §1, §2

[25] = tested on: PC3; assay: CellTiter-Blue cell-based survival/proliferation assay, PC3; conditions: Homo sapiens, PC-3; PC3 prostate tumor cell line, 48 h
Method: as §1, §2

[26] = tested on: HUT78; assay: CellTiter-Blue cell-based survival/proliferation assay, HUT78; conditions: Homo sapiens, Lymphoma cell line HUT78, 48 h, read-out: Anti-tumoral activity (measured IC50) HUT78
Method: as §1, §2

[27] = tested on: MDAMB231; assay: CellTiter-Blue cell-based survival/proliferation assay, MDAMB231; conditions: Homo sapiens, MDA-MB-231; MDAMB231 breast tumor cell line, 48 h
Method: as §1, §2

[28] = tested on: KARPAS299; assay: CellTiter-Blue cell-based survival/proliferation assay, KARPAS299; conditions: Homo sapiens, KARPAS-299, Lymphoma cell line KARPAS299, 48 h, read-out: Anti-tumoral activity (measured IC50) KARPAS299
Method: as §1, §2

Row | SMILES | pIC50 [1] | pIC50 [2] | pIC50 [3] | pIC50 [4] | pIC50 [5] | pIC50 [6] | pIC50 [7] | pIC50 [8] | pIC50 [9] | pIC50 [10] | pIC50 [11] | pIC50 [12] | pIC50 [13] | pIC50 [14] | pIC50 [15] | pIC50 [16] | pIC50 [17] | pIC50 [18] | pIC50 [19] | pIC50 [20] | also measured
1 | CCOCc1cc(COCC)cc(Nc2ncc(-c3ccc(-n4cccn4)cc3)o2)c1 [Example 022, (3,5-Bis-(ethoxymethyl)-phenyl)-[5-(4-pyrazol-1-yl-phenyl)-oxazol-2-yl]-amine] | < 6.00 | < 6.00 | < 6.00 | < 6.00 | < 6.00 | < 6.00 | < 6.00 | < 6.00 | < 6.00 | < 6.00 | 6.00 to 6.30 | < 6.00 | 6.00 to 6.30 | < 6.00 | < 6.00 | < 6.00 | < 6.00 | < 6.00 | < 6.00 | < 6.00 | pIC50 [21]: 6.00 to 6.30; pIC50 [22]: < 6.00; pIC50 [23]: < 6.00; pIC50 [24]: < 6.00; pIC50 [25]: < 6.00; pIC50 [26]: < 6.00; pIC50 [27]: < 6.00; pIC50 [28]: 6.30 to 7.00
2 | COc1ccc(C)c(Nc2ncc(-c3ccc(-n4cccn4)cc3)o2)c1 [Example 023, (5-Methoxy-2-methyl-phenyl)-[5-(4-pyrazol-1-yl-phenyl)-oxazol-2-yl]-amine] | < 6.00 | < 6.00 | < 6.00 | < 6.00 | < 6.00 | < 6.00 | < 6.00 | < 6.00 | < 6.00 | < 6.00 | 6.30 to 7.00 | < 6.00 | 6.30 to 7.00 | 6.30 to 7.00 | < 6.00 | < 6.00 | 6.30 to 7.00 | < 6.00 | < 6.00 | < 6.00 | pIC50 [21]: 6.30 to 7.00; pIC50 [22]: < 6.00; pIC50 [23]: < 6.00; pIC50 [24]: < 6.00; pIC50 [25]: < 6.00; pIC50 [26]: 6.30 to 7.00; pIC50 [27]: < 6.00; pIC50 [28]: 6.30 to 7.00
3 | Cc1ccc(COCCN)cc1Nc1ncc(-c2ccc(-n3cccn3)cc2)o1 [Example 024, [5-(2-Amino-ethoxymethyl)-2-methyl-phenyl]-[5-(4-pyrazol-1-yl-phenyl)-oxazol-2-yl]-amine] | < 6.00 | < 6.00 | < 6.00 | < 6.00 | < 6.00 | < 6.00 | < 6.00 | < 6.00 | < 6.00 | < 6.00 | < 6.00 | < 6.00 | < 6.00 | < 6.00 | < 6.00 | < 6.00 | < 6.00 | < 6.00 | < 6.00 | < 6.00 | pIC50 [21]: < 6.00; pIC50 [22]: < 6.00; pIC50 [23]: < 6.00; pIC50 [24]: < 6.00; pIC50 [25]: < 6.00; pIC50 [26]: < 6.00; pIC50 [27]: < 6.00; pIC50 [28]: < 6.00
4 | CC(=O)NCCOCc1ccc(C)c(Nc2ncc(-c3ccc(-n4cccn4)cc3)o2)c1 [Example 025, N-(2-{4-Methyl-3-[5-(4-pyrazol-1-yl-phenyl)-oxazol-2-ylamino]-benzyloxy}-ethyl)-acetamide] | < 6.00 | < 6.00 | < 6.00 | < 6.00 | < 6.00 | < 6.00 | < 6.00 | < 6.00 | < 6.00 | < 6.00 | < 6.00 | < 6.00 | < 6.00 | < 6.00 | < 6.00 | < 6.00 | < 6.00 | < 6.00 | < 6.00 | < 6.00 | pIC50 [21]: < 6.00; pIC50 [22]: < 6.00; pIC50 [23]: < 6.00; pIC50 [24]: < 6.00; pIC50 [25]: < 6.00; pIC50 [26]: < 6.00; pIC50 [27]: < 6.00; pIC50 [28]: < 6.00
5 | Cc1ccc(COCCO)cc1Nc1ncc(-c2ccc(-n3cccn3)cc2)o1 [Example 026, 2-{4-Methyl-3-[5-(4-pyrazol-1-yl-phenyl)-oxazol-2-ylamino]-benzyloxy}-ethanol] | < 6.00 | < 6.00 | < 6.00 | < 6.00 | < 6.00 | < 6.00 | < 6.00 | < 6.00 | < 6.00 | < 6.00 | < 6.00 | < 6.00 | < 6.00 | < 6.00 | < 6.00 | < 6.00 | < 6.00 | < 6.00 | < 6.00 | < 6.00 | pIC50 [21]: < 6.00; pIC50 [22]: < 6.00; pIC50 [23]: < 6.00; pIC50 [24]: < 6.00; pIC50 [25]: < 6.00; pIC50 [26]: < 6.00; pIC50 [27]: < 6.00; pIC50 [28]: < 6.00
6 | Cc1ccc(CO)cc1Nc1ncc(-c2ccc(-n3cccn3)cc2)o1 [Example 027, {4-Methyl-3-[5-(4-pyrazol-1-yl-phenyl)-oxazol-2-ylamino]-phenyl}-methanol] | < 6.00 | < 6.00 | < 6.00 | < 6.00 | < 6.00 | < 6.00 | < 6.00 | < 6.00 | < 6.00 | < 6.00 | < 6.00 | < 6.00 | < 6.00 | < 6.00 | < 6.00 | < 6.00 | < 6.00 | < 6.00 | < 6.00 | < 6.00 | pIC50 [21]: < 6.00; pIC50 [22]: < 6.00; pIC50 [23]: < 6.00; pIC50 [24]: < 6.00; pIC50 [25]: < 6.00; pIC50 [26]: < 6.00; pIC50 [27]: < 6.00; pIC50 [28]: < 6.00
7 | Cc1ccc(OCCN2CCOCC2)cc1Nc1ncc(-c2ccc(-n3cccn3)cc2)o1 [Example 029, [2-Methyl-5-(2-morpholin-4-yl-ethoxy)-phenyl]-[5-(4-pyrazol-1-yl-phenyl)-oxazol-2-yl]-amine] | < 6.00 | < 6.00 | < 6.00 | < 6.00 | < 6.00 | < 6.00 | < 6.00 | < 6.00 | < 6.00 | < 6.00 | < 6.00 | < 6.00 | < 6.00 | < 6.00 | < 6.00 | < 6.00 | < 6.00 | < 6.00 | < 6.00 | < 6.00 | pIC50 [21]: < 6.00; pIC50 [22]: < 6.00; pIC50 [23]: < 6.00; pIC50 [24]: < 6.00; pIC50 [25]: < 6.00; pIC50 [26]: < 6.00; pIC50 [27]: < 6.00; pIC50 [28]: < 6.00

Reference: patent US10570122B2, “Compounds with anti-tumoral activity” (AB Science, priority 2015, dated 2020)
